Source: patent US12279617B2, “Agricultural and horticultural chemical agent containing new imidazopyridine-2-carboxamide derivative as active ingredient” (AGRO-KANESHO CO., LTD., priority 2019, dated 2025)

Assays:
Type in all cases: in vivo
Plutella xylostella = assay: Insecticidal effect test for Plutella xylostella of Chinese cabbage; details: 500 ppm emulsion agent sprayed on Chinese cabbage seedlings; 3rd instar larvae; 5 days after insect release; 25° C.; agony insects counted as dead
Protocol: A sufficient amount of a water diluted solution of an emulsion agent (500 ppm) prepared as in Formulation Example 1 was sprayed with an air brush to the leaves of Chinese cabbage seedlings planted in pots raised for 2 weeks after sowing. The liquid agent was air dried, and five 3rd instar larvae of Plutella xylostella were then inoculated per pot and were kept in a thermostat chamber of 25° C. Five days after the insect release, the life-and-death and the agony of the larvae were investigated, and the insecticidal rate (%) when agony insects were included in dead insects was determined. Incidentally, the test was carried out by using one seedling in each ward. Insecticidal rate (%)=[number of dead larvae)/(number of test larvae)]×100

[1] = tested on: Spodoptera litura (Fabricius); assay: Larvicide test for Spodoptera litura (Fabricius); details: 500 ppm emulsion agent; artificial feed immersed about 60 seconds; 7 days after insect release; 25° C.; agony insects counted as dead
Excerpt: A water diluted solution of an emulsion agent (500 ppm) prepared as in Formulation Example 1 was put in a 120-mL polyethylene cup, and artificial feed Insecta LF (Nosan Corporation, diameter: 5 cm) sliced into 5 mm thickness and cut into ¼ was immersed in the polyethylene cup for about 60 seconds. After the immersion treatment, the resultant artificial feed piece was put in another 120-mL polyethylene cup (diameter: 8 cm, height: 4 cm) with filter paper (diameter: 55 mm) on the bottom together with test insects, and the cup was covered with a lid and was then kept in a thermostat chamber of 25° C. Seven days after the insect release, the life-and-death and the agony of the larvae were investigated, and the insecticidal rate (%) when agony insects were included in dead insects was determined. Incidentally, the test was carried out by using one cup in each ward. Insecticidal rate (%)=[number of dead larvae)/(number of test larvae)]×100

[2] = tested on: Aculops lycopersici Massee; assay: Adult-killing test for Aculops lycopersici Massee (tomato rust mites); details: 500 ppm emulsion agent sprayed 2.0 mL per cup on tomato leaf disks; 3 days after treatment; 25° C.; scored on four scales (100, 80, 50, 0)
Excerpt: A lid provided with a hole (diameter: about 5 mm) at the center was put on a 430-mL polyethylene cup containing water. Circular filter paper with a diameter of 6.5 cm which was cut such that a strip-shaped filter paper piece having a width of about 5 mm was formed was put on the lid, and the filter paper piece was inserted into the hole of the lid so that the tip of the piece extends downward from the hole and immersed in the water in the cup. Furthermore, absorbent cotton was put on the filter paper such that the water in the cup was always supplied to the absorbent cotton. Three leaf disks (1 cm×1 cm) of leaflets of tomato in the early stage of true leaf development were put on the absorbent cotton such that the back of the leaves in the disk form was on top, and small pieces of a leaf parasitized by tomato rust mites were inoculated on the leaves in the disk form. After 24 hours from the inoculation, the small pieces were removed, and the cup was placed in an acrylic cylinder having a height of 50 cm and a diameter of 10 cm. A water diluted solution of an emulsion agent (500 ppm) prepared as in Formulation Example 1 was sprayed in an amount of 2.0 mL per cup using an air brush. After the spraying, the cup was kept in a thermostat chamber of 25° C. Three days after the treatment, the control rate was evaluated on four scales: 100 (control rate: 100%), 80 (control rate: 99% to 80%), 50 (control rate: 79% to 50%), and 0 (control rate: less than 50%), and the next-generation density suppression rate was calculated based on the results by the following equation. Incidentally, the test was carried out by using one cup in each ward. Control rate=(A×100+B×80+C×50)/(A+B+C+D) A: the number of disks for 100, B: the number for disks of 80, C: the number for disks of 50, D: the number of disks for 0.

Compound	insecticidal rate (Plutella xylostella)	insecticidal rate [1]	control rate [2]
CCSc1c(C(=O)N(COC)c2ccc(C(F)(F)F)cc2)nc2ccc(C(F)(F)F)cn12 [A-13, N-(methoxymethyl)-N-{4-(trifluoromethyl)phenyl}-3-(ethylthio)-6-(trifluoromethyl)imidazo[1,2-a]pyridine-2-carboxamide]	100%	100%	–
CC[S+]([O-])c1c(C(=O)N(COC)c2ccc(C(F)(F)F)cc2)nc2ccc(C(F)(F)F)cn12 (stereo not drawn) [A-14, N-(methoxymethyl)-N-{4-(trifluoromethyl)phenyl}-3-(ethylsulfinyl)-6-(trifluoromethyl)imidazo[1,2-a]pyridine-2-carboxamide]	100%	100%	100%
CCS(=O)(=O)c1c(C(=O)N(COC)c2ccc(C(F)(F)F)cc2)nc2ccc(C(F)(F)F)cn12 [A-15, N-(methoxymethyl)-N-{4-(trifluoromethyl)phenyl}-3-(ethylsulfonyl)-6-(trifluoromethyl)imidazo[1,2-a]pyridine-2-carboxamide]	100%	100%	100%
CCOCN(C(=O)c1nc2cccc(C(F)(F)F)n2c1S(=O)(=O)CC)c1ccc(C(F)(F)F)cc1 [A-18]	100%	100%	–
CCOCN(C(=O)c1nc2cc(C(F)(F)F)ccn2c1[S+]([O-])CC)c1ccc(C(F)(F)F)cc1 (stereo not drawn) [A-20]	100%	100%	–
CCOCN(C(=O)c1nc2cc(C(F)(F)F)ccn2c1S(=O)(=O)CC)c1ccc(C(F)(F)F)cc1 [A-21]	100%	100%	–
CCOCN(C(=O)c1nc2c(C(F)(F)F)cccn2c1SCC)c1ccc(C(F)(F)F)cc1 [A-22]	100%	100%	–
CCOCN(C(=O)c1nc2ccc(Cl)cn2c1SCC)c1ccc(C(F)(F)F)cc1 [A-25]	100%	100%	100%
CCOCN(C(=O)c1nc2ccc(Cl)cn2c1S(=O)(=O)CC)c1ccc(C(F)(F)F)cc1 [A-27]	100%	100%	100%
CCOCN(C(=O)c1nc2ccc(C(F)(F)F)cn2c1SCC)c1ccccc1C(F)(F)F [A-31]	100%	–	–
CCOCN(C(=O)c1nc2ccc(C(F)(F)F)cn2c1S(=O)(=O)CC)c1ccccc1C(F)(F)F [A-33]	100%	100%	100%
CCOCN(C(=O)c1nc2ccc(C(F)(F)F)cn2c1SCC)c1ccc(SC(F)(F)F)cc1 [A-70]	100%	100%	100%
CCOCN(C(=O)c1nc2ccc(C(F)(F)F)cn2c1S(=O)(=O)CC)c1ccc(SC(F)(F)F)cc1 [A-72]	100%	100%	100%
CCOCN(C(=O)c1nc2ccc(C(F)(F)F)cn2c1S(=O)(=O)CC)c1ccc([S+]([O-])C(F)(F)F)cc1 (stereo not drawn) [A-75]	100%	100%	100%
CCOCN(C(=O)c1nc2ccc(C(F)(F)F)cn2c1SCC)c1ccc(C(F)(F)F)nc1 [A-91]	100%	100%	–
CCOCN(C(=O)c1nc2ccc(C(F)(F)F)cn2c1S(=O)(=O)CC)c1ccc(C(F)(F)F)cn1 [A-96]	100%	100%	100%
CCS(=O)(=O)c1c(C(=O)N(CSC)c2ccc(C(F)(F)F)cc2)nc2ccc(C(F)(F)F)cn12 [A-99]	100%	100%	–
CCS(=O)(=O)c1c(C(=O)N(CS(C)(=O)=O)c2ccc(C(F)(F)F)cc2)nc2ccc(C(F)(F)F)cn12 [A-102]	100%	100%	100%
CCS(=O)(=O)c1c(C(=O)N(C)c2ccc(C(F)(F)F)cc2)nc2ccc(C(F)(F)F)cn12 [Compound A, reference compound]	90%	90%	100%
CCOCN(C(=O)Cc1ccncc1S(=O)(=O)CC)c1ccc(C(F)(F)F)cc1 [Compound B, reference compound]	50%	0%	100%
